Results: US6642392B1 (priority 1997, dated 2003)
Read-outs that look alike come from different tables or passages of the source.

Tests used:
Format in all cases: in vivo
Puccinia recondita = test: Test B: wheat leaf rust, preventive spray on wheat seedlings; conditions: for Test B disease control rating: wheat leaf rust; for Test B disease control rating (100 = 100% disease control, 0 = no disease control): wheat seedlings sprayed to run-off, inoculated the following day, rating relative to controls, unmarked compounds (standard test rate)
Outline: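 Preventive test: P. recondita spores were applied one day after a run-off spray of compound suspension on wheat seedlings. Plants had 24 h at 20 °C in saturated air plus 6 days in a 20 °C growth chamber. Scoring is % disease control (100 = full) relative to controls.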

Botrytis cinerea = test: Test E: gray mold, preventive spray on cucumber seedlings; conditions: for Test E disease control rating: gray mold on cucumber; for Test E disease control rating (100 = 100% disease control, 0 = no disease control): cucumber seedlings sprayed to run-off, inoculated the following day, rating relative to controls, unmarked compounds (standard test rate)
Outline: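 Preventive spray on cucumber seedlings used a suspension (3% acetone, 250 ppm Trem 014), applied to run-off one day before inoculation with Botrytis cinerea spores. Plants were held 48 h at 20° C in saturated air, then 5 days at 20° C. Percent disease control was scored relative to untreated plants.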

[1] = system: Eiysiphe graminis f. sp. tritici; test: Test A: wheat powdery mildew, preventive spray on wheat seedlings; conditions: for Test A disease control rating: wheat powdery mildew; for Test A disease control rating (100 = 100% disease control, 0 = no disease control): wheat seedlings sprayed to run-off, inoculated the following day, rating relative to controls, unmarked compounds (standard test rate)
Outline: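 Preventive test: seedlings inoculated with powdery mildew spores one day after run-off spraying of a suspension. Ratings after 7 days in a 20° C growth chamber express percent disease control versus controls.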

Phytophthora infestans = conditions: for Test D disease control rating: tomato late blight; for Test D disease control rating (100 = 100% disease control, 0 = no disease control): tomato seedlings sprayed to run-off, inoculated the following day, rating relative to controls, unmarked compounds (standard test rate)
Pyricularia oryzae = conditions: for Test C disease control rating: rice blast; for Test C disease control rating (100 = 100% disease control, 0 = no disease control): rice seedlings sprayed to run-off, inoculated the following day, rating relative to controls, unmarked compounds (standard test rate)
[2] = 100 = 100% disease control, 0 = no control, unmarked entries (standard test concentration)
[3] = 100 = 100% disease control, 0 = no control relative to controls, unmarked entries (standard test concentration)

C[C@H](COc1cc(F)cc(F)c1)NC(=O)C(C#N)C(C)(C)C (single isomer, unassigned) [184a]
Test B disease control rating (Puccinia recondita; [2]): 0% | Test E disease control rating (Botrytis cinerea; [2]): 6% | Test A disease control rating [1, 3]: 62% | Test D disease control rating (Phytophthora infestans; [2]): 0% | Test C disease control rating (Pyricularia oryzae; [2]): 74%

C[C@H](COc1cc(F)ccc1Br)NC(=O)C(C#N)C(C)(C)C (single isomer, unassigned) [166b]
Test B disease control rating (Puccinia recondita; [2]): 0% | Test E disease control rating (Botrytis cinerea; [2]): 0% | Test A disease control rating [1, 3]: 0% | Test D disease control rating (Phytophthora infestans; [2]): 0% | Test C disease control rating (Pyricularia oryzae; [2]): 99%

CCC1(C(=O)NCC=Cc2ccccc2)C(C)C1(Cl)Cl (stereo not shown) [compound 156]
Test B disease control rating (Puccinia recondita; tested at 40 ppm): 0% | Test E disease control rating (Botrytis cinerea; tested at 40 ppm): 0% | Test A disease control rating ([1]; tested at 40 ppm): 0% | Test D disease control rating (Phytophthora infestans; tested at 40 ppm): 0% | Test C disease control rating (Pyricularia oryzae; tested at 40 ppm): 0%

CCC1(C(=O)NC(C)COc2c(F)ccc(F)c2C#N)C(C)C1(Cl)Cl (mixture of isomers) [compound 258]
Test B disease control rating (100 = 100% disease control, 0 = no disease control) (Puccinia recondita): 27% | Test E disease control rating (100 = 100% disease control, 0 = no disease control) (Botrytis cinerea): 0% | Test A disease control rating (100 = 100% disease control, 0 = no disease control) [1]: 74% | Test D disease control rating (100 = 100% disease control, 0 = no disease control) (Phytophthora infestans): 0% | Test C disease control rating (100 = 100% disease control, 0 = no disease control) (Pyricularia oryzae): 94%

CCC1(C(=O)NC(C)COc2ccccc2Br)C(C)C1(Cl)Cl (mixture of isomers) [84a]
Test B disease control rating (Puccinia recondita; tested at 40 ppm): 0% | Test E disease control rating (Botrytis cinerea; tested at 40 ppm): 0% | Test A disease control rating ([1]; tested at 40 ppm): 29% | Test D disease control rating (Phytophthora infestans; tested at 40 ppm): 20% | Test C disease control rating (Pyricularia oryzae; tested at 40 ppm): 0%

CC(COc1ccccc1)NC(=O)C(C#N)C(C)C(C)(C)C (mixture of isomers) [compound 56]
Test B disease control rating (Puccinia recondita; tested at 40 ppm): 0% | Test E disease control rating (Botrytis cinerea; tested at 40 ppm): 0% | Test A disease control rating ([1]; tested at 40 ppm): 74% | Test D disease control rating (Phytophthora infestans; tested at 40 ppm): 0% | Test C disease control rating (Pyricularia oryzae; tested at 40 ppm): 85%

C#CC(C)(C)C(C#N)C(=O)NC(C)COc1cc(Cl)ccc1Cl (mixture of isomers) [compound 212]
Test B disease control rating (Puccinia recondita; [2]): 0% | Test E disease control rating (Botrytis cinerea; [2]): 0% | Test A disease control rating [1, 3]: 0% | Test D disease control rating (Phytophthora infestans; [2]): 23% | Test C disease control rating (Pyricularia oryzae; [2]): 100%

C=CC(C)(CF)C(C#N)C(=O)NC(C)COc1cc(Cl)ccc1Cl (mixture of isomers) [compound 219]
Test B disease control rating (100 = 100% disease control, 0 = no disease control) (Puccinia recondita): 86% | Test E disease control rating (100 = 100% disease control, 0 = no disease control) (Botrytis cinerea): 0% | Test A disease control rating (100 = 100% disease control, 0 = no disease control) [1]: 86% | Test D disease control rating (100 = 100% disease control, 0 = no disease control) (Phytophthora infestans): 96% | Test C disease control rating (100 = 100% disease control, 0 = no disease control) (Pyricularia oryzae): 99%

CC(COc1cccc(Br)c1)NC(=O)C(C#N)C(C)(C)C (mixture of isomers) [9a]
Test B disease control rating (Puccinia recondita; [2]): 0% | Test E disease control rating (Botrytis cinerea; [2]): 0% | Test A disease control rating [1, 3]: 0% | Test D disease control rating (Phytophthora infestans; [2]): 0% | Test C disease control rating (Pyricularia oryzae; [2]): 53%

CCC1(C(=O)NC(C)COc2cc(F)c(F)cc2F)C(C)C1(Cl)Cl (stereo not shown) [compound 236]
Test B disease control rating (100 = 100% disease control, 0 = no disease control) (Puccinia recondita): 0% | Test E disease control rating (100 = 100% disease control, 0 = no disease control) (Botrytis cinerea): 0% | Test A disease control rating (100 = 100% disease control, 0 = no disease control) [1]: 77% | Test D disease control rating (100 = 100% disease control, 0 = no disease control) (Phytophthora infestans): 0% | Test C disease control rating (100 = 100% disease control, 0 = no disease control) (Pyricularia oryzae): 97%

CCC1(C(=O)NC(C)COc2cc(Cl)c(Cl)cc2Cl)C(C)C1(Cl)Cl (stereo not shown) [compound 242]
Test B disease control rating (100 = 100% disease control, 0 = no disease control) (Puccinia recondita): 0% | Test E disease control rating (100 = 100% disease control, 0 = no disease control) (Botrytis cinerea): 0% | Test A disease control rating (100 = 100% disease control, 0 = no disease control) [1]: 0% | Test D disease control rating (100 = 100% disease control, 0 = no disease control) (Phytophthora infestans): 96% | Test C disease control rating (100 = 100% disease control, 0 = no disease control) (Pyricularia oryzae): 74%

CCC1(C(=O)NC(C)COc2ccccc2C#N)C(C)C1(Cl)Cl (mixture of isomers) [89a]
Test B disease control rating (Puccinia recondita; [2]): 0% | Test E disease control rating (Botrytis cinerea; [2]): 0% | Test A disease control rating [1, 3]: 0% | Test D disease control rating (Phytophthora infestans; [2]): 20% | Test C disease control rating (Pyricularia oryzae; [2]): 74%

CCC1(C(=O)NC(C)COc2ccccc2I)C(C)C1(Cl)Cl (mixture of isomers) [87b]
Test B disease control rating (Puccinia recondita; tested at 40 ppm): 0% | Test E disease control rating (Botrytis cinerea; tested at 40 ppm): 0% | Test A disease control rating ([1]; tested at 40 ppm): 52% | Test D disease control rating (Phytophthora infestans; tested at 40 ppm): 0% | Test C disease control rating (Pyricularia oryzae; tested at 40 ppm): 0%

C[C@H](COc1cccc(Br)c1)NC(=O)C(C#N)C(C)(C)C (single isomer, unassigned) [9b]
Test B disease control rating (Puccinia recondita; [2]): 68% | Test E disease control rating (Botrytis cinerea; [2]): 0% | Test A disease control rating [1, 3]: 62% | Test D disease control rating (Phytophthora infestans; [2]): 28% | Test C disease control rating (Pyricularia oryzae; [2]): 99%
